Here are results for 14 molecules from patent US8691815B2, “Substituted oxindole derivatives, drugs containing said derivatives and the use thereof” (AbbVie Deutschland GmbH & Co. KG, priority 2005, dated 2014).

Where a name gives a salt, the structure may show the parent alone. Some results are limits rather than exact numbers.

In one assay the target is T1, human V1b receptor (Homo sapiens, UniProt P47901).
T1 construct: expressed in transfected cells; host or cells: CHO-K1
T1 sequence (P47901 1-424): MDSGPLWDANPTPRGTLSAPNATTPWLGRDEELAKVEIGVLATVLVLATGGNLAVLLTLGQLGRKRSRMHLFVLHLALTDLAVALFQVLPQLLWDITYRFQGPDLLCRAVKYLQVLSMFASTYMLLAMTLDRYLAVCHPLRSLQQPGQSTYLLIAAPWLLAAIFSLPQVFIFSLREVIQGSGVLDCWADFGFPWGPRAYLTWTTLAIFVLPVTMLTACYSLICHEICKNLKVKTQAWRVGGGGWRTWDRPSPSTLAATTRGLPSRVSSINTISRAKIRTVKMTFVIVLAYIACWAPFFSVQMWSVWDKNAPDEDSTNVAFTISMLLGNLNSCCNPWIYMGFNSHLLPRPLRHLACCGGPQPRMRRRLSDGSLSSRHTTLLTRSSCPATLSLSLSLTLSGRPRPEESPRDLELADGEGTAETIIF
Put plainly: Effect on vasopressin-induced calcium increase in cells having a cloned human vasopressin receptor. It counts as cell-based. Conditions: CHO-K1 cells stably transfected with human V1b receptor, Arg-vasopressin 10^-8 M, FLIPR calcium.
Description: Effect on Vasopressin-induced Calcium Increase in Cells Having a Cloned Human Vasopressin Receptor The functional activity of the test substances was investigated on CHO-K1 cells which were stably transfected with the human V1b receptor. 50 000 cells were seeded in each well of a microtiter plate with 96 wells and incubated in culture medium in a saturated water vapor atmosphere with 5% CO2 at 37° C. overnight. The culture medium consisted of DMEM/Nut Mix F12 with Glutamax I (from Invitrogen), 10% fetal calf serum, 100 units/ml penicillin, 100 μg/ml streptomycin and 800 μg/ml Geneticin. The following day, the cells were washed with culture medium and loaded with a fluorescent dye for calcium in accordance with the manufacturer's statements (Ca^++-Plus-Assay Kit, Molecular Devices). The cells were loaded in the presence of probenzide (1 vol %). The test substances were diluted with culture medium (final concentration 10^−10 to 10^−5M) and incubated with the dye-loaded cells at room temperature for 15 minutes. The Arg-vasopressin (10^−8M) was then added and the maximum fluorescence signal was determined using a FLIPR-96 measuring instrument (Molecular Devices). Concentration-effect plots were constructed using nonlinear regression algorithms (GraphPad Prism 3.0). Kb values were calculated from IC50 values by the method of Cheng and Prusoff (Kb=IC50/1+L/EC50).
For `COc1ccc(S(=O)(=O)N2C(=O)C(c3ccc(CN4CCCC4)cc3OC)(N3CCC[C@H]3C(=O)N(C)C)c3cc(Cl)ccc32)cc1` (single isomer, unassigned) [Example 2], the “functional antagonist of the human vasopressin V1b receptor” value is given as “functional antagonist”.

The target in a further assay is T2, human vasopressin V1b receptor (Homo sapiens, UniProt P47901).
T2 construct: expressed in transfected cells; host or cells: CHO-K1 (cell line hV1b-3H2_CHO), membrane preparation
T2 sequence (P47901 1-424): T1 sequence (P47901 1-424)
Put plainly: Vasopressin V1b receptor binding assay. Conditions: membranes from CHO-K1 cells with stably expressed human V1b receptors, displacement of 1.5 nM 3H-AVP. An outline of the steps:
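Membranes were incubated with radioligand for 60 min at room temperature in 50 mM Tris, 10 mM MgCl2, 0.1% BSA, pH 7.4, with 2% DMSO final. Nonspecific binding was defined with 1 uM AVP. Bound ligand was collected by GF/B filtration and counted by scintillation, and binding parameters were derived by nonlinear regression.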
In turn, `COc1ccc(S(=O)(=O)N2C(=O)C(c3ccc(CN4CCCC4)cc3OC)(N3CCC[C@H]3C(=O)N(C)C)c3cc(Cl)ccc32)cc1` (single isomer, unassigned) [Example 2] had an inhibitory constant (Ki) below 1 nM.

The molecule `COc1ccc(S(=O)(=O)N2C(=O)C(c3ccc(CN(C)C(C)C)cc3OC)(N3CCC[C@H]3C(=O)N(C)C)c3cc(Cl)ccc32)cc1` (stereo partly drawn) [Example 88, (S)-1-[5-Chloro-3-{4-[(isopropylmethylamino)methyl]-2-methoxyphenyl}-1-(4-methoxy-benzenesulfonyl)-2-oxo-2,3-dihydro-1H-indol-3-yl]pyrrolidine-2-dimethylcarboxamide, trifluoroacetic acid salt] displayed a Ki below 1 nM.

Turning to `COc1ccc(S(=O)(=O)N2C(=O)C(c3ccc(CN4CCCC4)cc3OC)(N(C)[C@@H](C)C(=O)N(C)C)c3cc(Cl)ccc32)c(OC)c1` (stereo partly drawn) [Example 14, (S)-2-{[5-Chloro-1-(2,4-dimethoxybenzenesulfonyl)-3-(2-methoxy-4-pyrrolidin-1-yl-methylphenyl)-2-oxo-2,3-dihydro-1H-indol-3-yl]methylamino}-N,N-dimethyl-propionamide], the Ki was in the range of 1 to 10 nM.

With `COc1ccc(S(=O)(=O)N2C(=O)C(c3cc(CN(C)CCCN(C)C)ccc3OC)(N3CCC[C@H]3C(=O)N(C)C)c3cc(Cl)ccc32)cc1` (stereo partly drawn) [Example 23, (S)-1-[5-Chloro-3-(5-{[(3-dimethylaminopropyl)methylamino]methyl}-2-methoxy-phenyl)-1-(4-methoxybenzenesulfonyl)-2-oxo-2,3-dihydro-1H-indol-3-yl]pyrrolidine-2-dimethylcarboxamide, trifluoroacetic acid salt], the Ki was below 1 nM.

In turn, `COc1ccc(S(=O)(=O)N2C(=O)C(c3ccc(CN4CCCCC4)cc3OC)(N3CCC[C@H]3C(=O)N(C)C)c3cc(Cl)ccc32)cc1` (stereo partly drawn) [Example 83, (S)-1-[5-Chloro-1-(4-methoxybenzenesulfonyl)-3-(2-methoxy-4-piperidin-1-ylmethyl-phenyl)-2-oxo-2,3-dihydro-1H-indol-3-yl]pyrrolidine-2-dimethylcarboxamide, trifluoroacetic acid salt] showed a Ki below 1 nM.

Regarding `COc1ccc(CN2CCN(C)CC2)cc1C1(N2CCC[C@H]2C(=O)N(C)C)C(=O)N(S(=O)(=O)c2ccc(C#N)cc2)c2ccc(Cl)cc21` (stereo partly drawn) [Example 97, (S)-1-{5-Chloro-1-(4-cyanobenzenesulfonyl)-3-[2-methoxy-5-(4-methylpiperazin-1-yl-methyl)phenyl]-2-oxo-2,3-dihydro-1H-indol-3-yl}pyrrolidine-2-carboxylic acid dimethylamide, trifluoroacetic acid salt], the Ki was below 1 nM.

As for `CCN(CC)Cc1ccc(C2(N3CCC[C@H]3C(=O)N(C)C)C(=O)N(S(=O)(=O)c3ccc(OC)cc3)c3ccc(Cl)cc32)c(OC)c1` (stereo partly drawn) [Example 86, (S)-1-[5-Chloro-3-(4-diethylaminomethyl-2-methoxyphenyl)-1-(4-methoxybenzene-sulfonyl)-2-oxo-2,3-dihydro-1H-indol-3-yl]pyrrolidine-2-dimethylcarboxamide, trifluoroacetic acid salt], the inhibition constant Ki is below 1 nM.

Consider `COc1ccc(S(=O)(=O)N2C(=O)C(c3cccc(CN(C)C)c3)(N3C[C@H](O)C[C@H]3C(=O)N(C)C)c3cc(Cl)ccc32)c(OC)c1` (single isomer, unassigned) [Example 16], for which the inhibition constant (Ki) was 1 to 10 nM.

`COCCN(C)Cc1ccc(OC)c(C2(N3CCC[C@H]3C(=O)N(C)C)C(=O)N(S(=O)(=O)c3ccc(OC)cc3)c3ccc(Cl)cc32)c1` (stereo partly drawn) [Example 32, (S)-1-[5-Chloro-1-(4-methoxybenzenesulfonyl)-3-(2-methoxy-5-{[(2-methoxyethyl)-methylamino]methyl}phenyl)-2-oxo-2,3-dihydro-1H-indol-3-yl]-pyrrolidine-2-dimethyl-carboxamide, trifluoroacetic acid salt] gave a Ki below 1 nM.

For `COc1ccc(S(=O)(=O)N2C(=O)C(c3ccc(CN4CCN(C)CC4)cc3OC)(N3CCC[C@H]3C(=O)N(C)C)c3cc(Cl)ccc32)cc1` (stereo partly drawn) [Example 69, (S)-1-{5-Chloro-1-(4-methoxybenzenesulfonyl)-3-[2-methoxy-4-(4-methylpiperazin-1-ylmethyl)phenyl]-2-oxo-2,3-dihydro-1H-indol-3-yl}pyrrolidine-2-dimethylcarboxamide, trifluoroacetic acid salt], the inhibitory constant (Ki) was below 1 nM.

The molecule `COc1ccc(S(=O)(=O)N2C(=O)C(c3cc(CN4CCOCC4)ccc3OC)(N3CCC[C@H]3C(=O)N(C)C)c3cc(Cl)ccc32)c(OC)c1` (stereo partly drawn) [Example 28, (S)-1-[5-Chloro-1-(2,4-dimethoxybenzenesulfonyl)-3-(2-methoxy-5-morpholin-4-yl-methylphenyl)-2-oxo-2,3-dihydro-1H-indol-3-yl]pyrrolidine-2-dimethylcarboxamide, trifluoroacetic acid salt] had a Ki of 1 to 10 nM.

For `COc1ccc(S(=O)(=O)N2C(=O)C(c3cc(CN4CCOCC4)ccc3OC)(N3CCC[C@H]3C(=O)N(C)C)c3cc(Cl)ccc32)cc1` (stereo partly drawn) [Example 21, (S)-1-[5-Chloro-1-(4-methoxybenzenesulfonyl)-3-(2-methoxy-5-morpholin-4-yl-methylphenyl)-2-oxo-2,3-dihydro-1H-indol-3-yl]pyrrolidine-2-dimethylcarboxamide, trifluoroacetic acid salt], the inhibitory constant (Ki) is below 1 nM.

“(S)-2-({5-Chloro-1-(2,4-dimethoxybenzenesulfonyl)-3-[2-methoxy-4-(4-methyl-piperazin-1-ylmethyl)phenyl]-2-oxo-2,3-dihydro-1H-indol-3-yl}methylamino)-N,N-dimethyl-propionamide [Example 15]” gave an inhibition constant (Ki) below 1 nM.

Regarding `COc1cc(CN2CCNCC2)ccc1C1(N2CCC[C@H]2C(=O)N(C)C)C(=O)N(S(=O)(=O)c2ccc(F)cc2)c2ccc(Cl)cc21` (stereo partly drawn) [Example 78, (S)-1-[5-Chloro-1-(4-fluorobenzenesulfonyl)-3-(2-methoxy-4-piperazin-1-ylmethyl-phenyl)-2-oxo-2,3-dihydro-1H-indol-3-yl]pyrrolidine-2-dimethylcarboxamide, trifluoroacetic acid salt], the inhibitory constant (Ki) is below 1 nM.

As usually defined, the Ki is the dissociation constant of the complex between target and ligand, obtained from inhibition or displacement. Low readings indicate a stronger hold on the target, high ones a looser hold on the target.
